Measurements taken from the NIST ThermoML archive (doi:10.1016/j.jct.2008.01.007).
± gives the expanded uncertainty stated by the source.

Details: 101 kPa, Liquid

mass density (293.15 K): 1076.58 ± 3.1 kg/m3 | viscosity (293.15 K): 26.58 ± 1.8 mPa·s | mass density (303.15 K): 1066.51 ± 3 kg/m3 | viscosity (303.15 K): 21.99 ± 1.5 mPa·s | mass density (313.15 K): 1059.19 ± 2.8 kg/m3 | viscosity (313.15 K): 17.32 ± 1.2 mPa·s | mass density (323.15 K): 1052.64 ± 2.7 kg/m3 | viscosity (323.15 K): 12.86 ± 0.92 mPa·s | mass density (333.15 K): 1046.43 ± 2.6 kg/m3 | viscosity (333.15 K): 8.284 ± 0.64 mPa·s
SMILES: OCCN1CCOCC1 [4-morpholineethanol]
